Patent US10925840B2, “Use of fenoterol and fenoterol analogues in the treatment of glioblastomas and astrocytomas” (priority 2010, dated 2021)
“And” between values parts separate entries of the source, which are not always exact repeats. Equal entries are not always repeated. Structures can show the parent of a compound that is named as a salt. Where two headings read alike, the source gives them in different places.

Key:
[1] = molecular target: β2-AR; conditions: previously reported; cited from earlier work
[2] = molecular target: β1-AR (Rattus norvegicus (Rat), UniProt P18090); conditions: read-out: Ki β1; Ki ± SEM, n=3
Sequence of β1-AR (P18090 whole entry): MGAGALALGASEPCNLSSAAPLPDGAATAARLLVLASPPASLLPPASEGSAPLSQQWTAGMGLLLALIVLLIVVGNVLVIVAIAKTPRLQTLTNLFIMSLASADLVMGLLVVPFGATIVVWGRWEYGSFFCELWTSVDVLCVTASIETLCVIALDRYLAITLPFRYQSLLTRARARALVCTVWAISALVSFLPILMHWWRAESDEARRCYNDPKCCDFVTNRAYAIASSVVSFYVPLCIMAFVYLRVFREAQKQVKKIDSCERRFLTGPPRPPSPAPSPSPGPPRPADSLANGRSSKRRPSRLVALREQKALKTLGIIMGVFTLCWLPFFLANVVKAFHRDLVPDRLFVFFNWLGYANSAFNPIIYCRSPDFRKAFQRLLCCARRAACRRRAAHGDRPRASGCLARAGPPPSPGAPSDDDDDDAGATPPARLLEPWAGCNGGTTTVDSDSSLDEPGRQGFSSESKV

[3] = molecular target: human β2-AR (Homo sapiens (Human), UniProt P07550)
[4] = IV 5 mg/kg
[5] = system: 1321N1 cells; assay: Inhibition of mitogenesis, [3H]-thymidine incorporation in 1321N1 cells; format: cell-based, human
[6] = system: U118 cells; conditions: [3H]-thymidine incorporation
[7] = system: 1321N1 cells; assay: Cell cycle distribution by flow cytometry in 1321N1 cells; conditions: 20 hours
[8] = system: rat cardiomyocyte; assay: Rat cardiomyocyte contractility model; format: cell-based
[9] = Brain and plasma distribution after single IV administration in rats; format: in vivo, male Sprague-Dawley rats
Description: An overview of the research study design for evaluating the brain-to-plasma distribution of [^3H]
(specific activity 57 Ci/mmol); vehicle was sterile saline, 0.9% sodium chloride, USP. Dose formulations were prepared on the day of the study. The amount of radioactivity in the dose formulation was determined by liquid scintillation. The study lasted for an hour and radioactivity levels in plasma and brain tissue were evaluated at the conclusion of the study. Approximately 5 mls of whole blood was collected. Blood samples were collected via cardiac puncture, transferred into a tube containing K3EDTA as the anticoagulant and kept on wet ice until processed to plasma. To generate plasma, samples were centrifuged within 15 minutes of collection at 2,500 RPM for 15 minutes at room temperature. Plasma was divided equally into three labeled cryovials and stored on ample dry ice until transferred to a freezer set at ≤−20° C. for storage until analysis. Duplicate aliquots were weighed and then combined with scintillation cocktail. The [^3H] radioactivity was determined on a liquid scintillation counter. Brain samples were snap frozen in liquid nitrogen and stored at ≤−70° C. until analysis. Whole brain tissue was homogenized and the weight of the homogenate was determined. Duplicate aliquots from the homogenate were weighed, solubilized and then combined with scintillation cocktail. The [^3H] radioactivity was determined on a liquid scintillation counter.

[10] = rat, IV 5 mg/kg, 5 min, listed as [^3H]—(R,R)-methoxyfenoterol
[11] = rat, IV 5 mg/kg, 60 min, listed as [^3H]—(R,R)-methoxyfenoterol

NCC(O)c1ccc(O)c2[nH]c(=O)ccc12 (stereo not shown) [Compound 51]
Ki β1/Ki β2 ratio [1]: 1.3

O=C(O)/C=C/C(=O)O.Oc1cc(O)cc([C@@H](O)CNCCc2ccccc2)c1 [(R)-7, (R)-(−)-5-(1-Hydroxy-2-phenethylaminoethyl)-1,3-benzenediol fumarate]
Ki [2]: 42.5 ± 3.47 µM | Kiβ2 value higher than (R,S)-3 ([3]; relative to (R,S)-3): 32%

C[C@@H](Cc1cccc2ccccc12)NC[C@H](O)c1cc(O)cc(O)c1.O=C(O)/C=C/C(=O)O [(R,S)-5, (R,S)-(−)-5-{1-hydroxy-2-[1-methyl-2-(1-naphthyl)ethylamino]ethyl}-1,3-benzenediol Fumarate]
plasma concentration, individual rat ([4]; 240 min, listed as (R,S)-naphthylfenoterol, Fumarate): 0.11 ug/ml (3×) and 0.13 ug/ml (2×) | plasma concentration, individual rat ([4]; 300 min, listed as (R,S)-naphthylfenoterol, Fumarate): 0.10 ug/ml (2×) and 0.11 ug/ml (2×) and 0.12 ug/ml | systemic exposure (AUC) compared to (R,R)-fenoterol ([4]; rat): significantly higher | plasma concentration, Average ([4]; rat, 15 min): 680 ng/mL | plasma concentration, Average ([4]; rat, 30 min): 430 ng/mL | plasma concentration, Average ([4]; rat, 60 min): 340 ng/mL | plasma concentration, Average ([4]; rat, 120 min): 240 ng/mL | plasma concentration, Average ([4]; rat, 240 min): 120 ng/mL | plasma concentration, Average ([4]; rat, 300 min): 110 ng/mL | plasma concentration, Average ([4]; rat, 360 min): 90 ng/mL

Oc1cc(O)cc([C@H](O)CNCCc2ccccc2)c1 [(S)-7, (S)-(+)-5-(1-hydroxy-2-phenethylaminoethyl)-1,3-benzenediol Fumarate]
Ki [2]: 52.2 ± 3.01 µM

C[C@H](Cc1cccc2ccccc12)NC[C@@H](O)c1cc(O)cc(O)c1.O=C(O)/C=C/C(=O)O (racemic) [(S,R)-5, (S,R)-(+)-5-{1-hydroxy-2-[1-methyl-2-(1-naphthyl)ethylamino]ethyl}-1,3-benzenediol Fumarate]
affinity for the β2-AR weaker than (R,R)-5 [3]: 7 fold

Cc1ccc(OCC(O)C(C)NC(C)C)c2c1CCC2 (stereo not shown) [ICI 118-551]
shift of the (R,R)-fenoterol dose response curve ([5]; 1 nM and 3 nM): parallel rightward shift | pA2 against inhibitory effect of (R,R)-fenoterol ([5]; [3H]-thymidine incorporation, 1321N1 cells): 8.9 | slope of competitive inhibition ([5]; [3H]-thymidine incorporation, versus (R,R)-fenoterol): −1.3±0.3

C[C@H](Cc1ccc(O)cc1)NC[C@H](O)c1cc(O)cc(O)c1 [(R,R)-1, (R,R)-(−)-Fenoterol]
IC50 higher than the value calculated in 1321N1 cells [6]: 50 fold | % Phase Distribution G2 ([7]; 0.1 nM): 1.8% | % Phase Distribution G1 ([7]; 10.0 nM): 76.0% | % Phase Distribution G2 ([7]; 10.0 nM): 2.1% | % Phase Distribution G2 ([7]; 1000 nM): 0.7%

C[C@@H](Cc1ccc(O)cc1)NC[C@@H](O)c1cc(O)cc(O)c1 (racemic) [(S,S)-1, (S,S)-(±)-Fenoterol]
EC50 [8]: 55 µM

CC(C)NCC(O)c1ccc(O)c2[nH]c(=O)ccc12 (stereo not shown) [Compound 50]
Ki β1/Ki β2 ratio [1]: 1.7

(R,R)-TA-2005 [Compound 49]
Ki [1]: 0.012 µM | Ki β1/Ki β2 ratio [1]: 53

[3H]COc1ccc(C[C@@H](C)NC[C@H](O)c2cc(O)cc(O)c2)cc1 [[^3H]-(R,R)-methoxyfenoterol, [^3H]—(R,R)-methoxyfenoterol chloride]
decrease of plasma level ([9]; from 5 minutes to 60 minutes): 62% | passage through the blood brain barrier ([9]; rat, IV): pass through the blood brain barrier | Brain level, Mean ([9]; rat, IV 5 mg/kg, 5 min): 0.92 μg-equiv/g | Percent of Dose in Brain, Mean ([9]; rat, IV 5 mg/kg, 5 min): 0.14% | Plasma level, Mean ([9]; rat, IV 5 mg/kg, 5 min): 3.25 μg-equiv/ml | Brain level, Mean [9, 10]: 0.92±0.10 μg-equiv/g | Plasma level, Mean [9, 10]: 3.25±0.15 μg-equiv/ml | Brain level, Mean ([9]; rat, IV 5 mg/kg, 15 min): 0.80 μg-equiv/g | Percent of Dose in Brain, Mean ([9]; rat, IV 5 mg/kg, 15 min): 0.12% | Plasma level, Mean ([9]; rat, IV 5 mg/kg, 15 min): 1.79 μg-equiv/ml | Brain level, Mean ([9]; rat, IV 5 mg/kg, 30 min): 0.72 μg-equiv/g | Percent of Dose in Brain, Mean ([9]; rat, IV 5 mg/kg, 30 min): 0.11% | Plasma level, Mean ([9]; rat, IV 5 mg/kg, 30 min): 1.53 μg-equiv/ml | Brain level, Mean ([9]; rat, IV 5 mg/kg, 60 min): 0.70 μg-equiv/g | Percent of Dose in Brain, Mean ([9]; rat, IV 5 mg/kg, 60 min): 0.11% | Plasma level, Mean ([9]; rat, IV 5 mg/kg, 60 min): 1.24 μg-equiv/ml | Brain level, Mean [9, 11]: 0.70±0.37 μg-equiv/g | Plasma level, Mean [9, 11]: 1.24±0.43 μg-equiv/ml | percent dose found in the brain, any given animal ([9]; rat, IV 5 mg/kg, over 60 minutes): no more than 0.17%

COc1ccc(C[C@@H](C)NC[C@H](O)c2cc(O)cc(O)c2)cc1.O=C(O)/C=C/C(=O)O [(R,R)-2, (R,R)-(−)-1-p-Methoxyphenyl-2-(β-3′,5′-dihydroxy-phenyl-β-oxy)ethylamino-propane Fumarate]
plasma concentration, individual rat ([4]; 300 min, listed as (R,R)-methoxyfenoterol): 0.06 ug/ml and 0.07 ug/ml (3×) and 0.09 ug/ml | systemic exposure (AUC) compared to (R,R)-fenoterol ([4]; rat): significantly higher | B ([4]; rat, two-compartment open model): 0.3900 µg/mL
